# pIC50, pKd: −log10 of the molar value.
# Assays:
# folate receptor = target: T1, folate receptor (Homo sapiens, UniProt P15328); test: Binding affinity to folate receptors in KB cells
# T1 construct: endogenous in cells; host or cells: KB cells (human; maintained at Purdue Cancer Cell Culture Facility)
# FRβ-expressing RAW cells = test: Endosomal escape in FRβ-expressing RAW cells (confocal); type: cell-based
# KB cells [1] = test: Confocal microscopy for endosomal release in KB cells; type: cell-based, human
# folate receptors = details: read-out: binding affinity Kd; cited from earlier work
# KB cells [2] = test: cells; details: Homo sapiens, read-out: IC50 concentration, growth of KB cells
# KB cells [3] = test system: KB cells
# T1 sequence (P15328 25-234): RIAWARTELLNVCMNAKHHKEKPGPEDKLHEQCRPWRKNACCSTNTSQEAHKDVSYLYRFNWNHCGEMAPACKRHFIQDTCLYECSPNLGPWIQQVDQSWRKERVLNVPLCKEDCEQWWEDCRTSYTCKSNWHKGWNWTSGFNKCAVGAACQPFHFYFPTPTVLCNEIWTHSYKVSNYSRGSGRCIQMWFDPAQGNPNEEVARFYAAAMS
structure (smiles),measurement,setting,value
CO[C@@H]1C[C@@H](C[C@H]2CC[C@H](C)C([C@@H](C)C(=O)OCCSSC[C@H](NC(=O)[C@H](CC(=O)O)NC(=O)[C@H](CC(=O)O)NC(=O)[C@H](CCCNC(=N)N)NC(=O)[C@H](CC(=O)O)NC(=O)CC[C@H](NC(=O)c3ccc(NCc4cnc5nc(N)[nH]c(=O)c5n4)cc3)C(=O)O)C(=O)O)O2)O[C@]2(O[C@@](C)(C3CC[C@@](C)([C@@H]4O[C@@H]([C@@H]5O[C@@](O)(CO)[C@H](C)C[C@@H]5C)C[C@@H]4C)O3)C[C@H]2C)[C@@H]1C (some centres unmarked) [conjugate 1],binding affinity to folate receptors compared to folate-rhodamine compound 2,folate receptor,5 times lower
same,endosome size versus cells not treated with conjugate,"FRβ-expressing RAW cells; 100 nM FN with 10 nM FR, FIG. 9",somewhat larger
same,effective concentration for co-incubation,KB cells [1],200 nM
same,endosomal release of the rhodamine dye,KB cells [1],lower
same,release of rhodamine dye from the endosome,KB cells [1],considerable release
same,time of high release of rhodamine dye from endosomes,KB cells [1],1 to 3 h
Nc1nc2ncc(CNc3ccc(C(=O)N[C@@H](CCC(=O)O)C(=O)O)cc3)nc2c(=O)[nH]1 [Folic acid],pKd,folate receptors,10.00
"CCN(CC)c1ccc2c(-c3ccc(S(=O)(=O)NCCSSC[C@H](CC(=O)O)NC(=O)[C@H](CCCCN)NC(=O)[C@H](CC(=O)O)NC(=O)CC[C@H](NC(=O)c4ccc(NCc5cnc6nc(N)[nH]c(=O)c6n5)cc4)C(=O)O)cc3S(=O)(=O)[O-])c3ccc(=[N+](CC)CC)cc-3oc2c1 [compound 2, reference compound]",accumulation of dye inside the endosomes,"FRβ-expressing RAW cells; 10 nM FR, by 2 h, with or without folate-nigericin conjugate 1",significant accumulation
CO[C@@H]1C[C@@H](C[C@H]2CC[C@H](C)C([C@@H](C)C(=O)O)O2)O[C@]2(O[C@@](C)(C3CC[C@@](C)([C@@H]4O[C@@H]([C@@H]5O[C@@](O)(COC(=O)NCCSSC[C@H](NC(=O)[C@H](CC(=O)O)NC(=O)[C@H](CC(=O)O)NC(=O)[C@H](CCCNC(=N)N)NC(=O)[C@H](CC(=O)O)NC(=O)CC[C@H](NC(=O)c6ccc(NCc7cnc8nc(N)[nH]c(=O)c8n7)cc6)C(=O)O)C(=O)O)[C@H](C)C[C@@H]5C)C[C@@H]4C)O3)C[C@H]2C)[C@@H]1C (some centres unmarked) [conjugate 5],binding affinity to folate receptors compared to folate-rhodamine compound 2,folate receptor,three times lower
CO[C@@H]1C[C@@H](C[C@H]2CC[C@H](C)[C@H]([C@@H](C)C(=O)O)O2)O[C@]2(O[C@](C)([C@H]3CC[C@@](C)([C@@H]4O[C@@H]([C@H]5O[C@@](O)(CO)[C@H](C)C[C@@H]5C)C[C@@H]4C)O3)C[C@H]2C)[C@@H]1C [nigericin],pIC50,KB cells [2],4.92
same,toxicity to the cells,KB cells [3],not toxic

# Source: patent US10406238B2, “Ligand ionophore conjugates” (PURDUE RESEARCH FOUNDATION, priority 2015, dated 2019)
